Values quoted from earlier work, collected in patent USRE50805E1, “Single-layer oral dose of neuro-attenuating ketamine” (ACADIA Pharmaceuticals Inc., priority 2013, dated 2026).
Where a name gives a salt, the structure may show the parent alone.

Columns and labels:
[1] = after oral administration, background statement
[2] = not given; remark: listed apart in the source

Compound | elimination half-life [1] [h] | optimal efficacy plasma concentration (exceeding it leads to more pronounced side effects) [ng/mL] | blood concentration level above which side effects may become more pronounced (in vivo) | solubility in water [2]
CNC1(c2ccccc2Cl)CCCCC1=O (racemic) [ketamine, (R,S)—2-(2-chlorophenyl)-2-(methylamino) cyclohexanone] | 2 to 3 | 10 to 300 | above 300 ng/L | –
NC1(c2ccccc2Cl)CCCCC1=O (racemic) [norketamine, (R,S)—2-(2-chlorophenyl)-2-(amino) cyclohexanone] | 4 | – | – | –
CNC1(c2ccccc2Cl)CCCCC1=O (centres unmarked) [ketamine hydrochloride] | – | – | – | about 200 mg/ml
